US7312248B2, “Control of parasites in animals by the use of novel trifluoromethanesulfonanilide oxime ether derivatives” (Schering-Plough Animal Health Corporation, priority 2004, dated 2007)
Like-named read-outs stand apart in the source and are kept apart here.

How the values were obtained:
Format in all cases: in vivo
[1] = tested on: cat flea (Ctenocephalides felis); assay: whole plant or invertebrate; details: Ctenocephalides felis
How it was run: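 Single-dose screen at 1.26 μg/cm^2: acetone solution dried for 24 h on a Coatasil-treated 159 mm^2 flask base, then 15 adult cat fleas aged 3-7 days per flask, four or more replicates, acetone control. Percent dead, meaning not moving or unable to right themselves, recorded after 8, 24 and/or 48 h at 25 °C and 75% RH.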

[2] = tested on: cat flea (Ctenocephalides felis); assay: Ctenocephalides felis adulticide assay: dose response (LC50)
How it was run: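 Groups of 15 adult cat fleas, 3–7 days post-emergence, were exposed for 24 h at 25° C and 75% humidity to glass flask bases coated with six serial doses in acetone and dried for 24 h. Mortality was scored at 8 and 24 h, and LC50 was the surface-treatment concentration killing 50%.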

[3] = tested on: Brown Dog Tick (Rhipicephalus sanguineus); assay: Dose response protocol for topical application on brown dog ticks (LD50); details: 24 h mortality
Protocol: e) Dose response protocol for topical application on brown dog ticks (Rhipicephalus sanguineus): The test determines the level of insecticidal activity of sample compounds or formulations when applied topically on brown dog ticks. Sample compounds were stored prior to use in a freezer (−5±1° C.), unless otherwise specified.
• Mortality: A tick is defined as dead after it gives no apparent response when touched lightly or gently breathed upon, while observed for 30 seconds. • LD50 (Lethal Dose 50): The dose of a topically applied treatment at which 50% of the dog ticks are killed. • Reference compound: To assess an experimental compound for significant acaricidal activity a single dose level is chosen, which is based upon known results from previous experiments using a commercially available active i.e., a reference compound. The reference compound selected is one in common use, and one that has a similar mode of action against the Brown Dog Tick (i.e., the test species). • Recovery container: A recovery container consists of a 500 ml round plastic container measuring 115 mm diameter and 70 mm height, with a tight fitting lid that has 10 small (˜1 mm) holes inserted for air exchange. A 90 mm diameter piece of filter paper was placed on the bottom of the container and moistened with 1 mL of de-stilled water.
Adult, mixed sex, Brown Dog Ticks (Rhipicephalus sanguineus) were reared as follows: (i) cultured, (ii) transferred unfed, to a testing laboratory, and (iii) then maintained under controlled conditions (i.e., temp. 18°±2° C., humidity 75±5% RH). The ticks used were selected for vigor prior to testing, i.e., capable of actively walking and responsive to being touched or gently breathed upon.
During the testing, the temperature was maintained at 25±1° C., and the humidity was ambient. Seven dose levels (concentrations) of sample compound, in the form of serial dilutions in acetone, were derived from a pilot study and covered a range that produced very low to very high mortality. Groups of ten ticks were treated topically (on the abdomen) with 1 μL of a single dose level of the sample compound. Each test was replicated four times, i.e., employing a total of 40 ticks per dose level of each sample compound. As a control, ten ticks were treated with solvent only (acetone) for each test. Following the treatment, the ticks were held in recovery containers maintained under appropriate rearing conditions for 24 hours. Mortality resulting from the treatments was recorded at 24 hours. […] Press, London (1971).]

[4] = tested on: Brown Dog Tick (Rhipicephalus sanguineus); assay: Rapid screening protocol for topical application on brown dog ticks; details: 48 h; Laboratory 2 F data
Protocol: d) Rapid Screening Protocol for Topical Application on Brown Dog Ticks (Rhipicephalus sanguineus)
The aim of the test was to determine the presence of significant acaricidal activity in sample compounds or formulations when applied topically on brown dog ticks. A tick was defined as dead if it gave no apparent response when touched lightly and observed for 1 minute. […] Both permethrin and fipronil were employed as reference compounds. The insect species tested was the Brown Dog Tick (Rhipicephalus sanguineus). Mixed sex adult ticks were used for tests. The strain used was cultured by von Berky Veterinary Services, Woody Point, QLD, AU and supplied as unfed adult ticks (mixed sex). Ticks were maintained in controlled conditions (temp. 18°+2° C., humidity 75±5% RH).
Temperature was maintained at 25±1° C. and the humidity was ambient. […] Ticks were each treated on the abdomen with 1 μL of a single dose level of test sample in acetone; ten ticks were treated with solvent only (acetone) in each test. Tests were replicated 4 times (total of 40 ticks treated). […]

[5] = 8 h, read-out: C. felis Mortality (%) 8 h, 8 h, Laboratory 2 B data
[6] = 24 h, read-out: C. felis Mortality (%) 24 h, 24 h, Laboratory 2 B data
[7] = 48 h, read-out: C. felis Mortality (%) 48 h, 48 h, Laboratory 2 B data

Structure (SMILES) | mortality at 1.26 µg/cm2, 1.26 µg/cm2 [1, 5] | mortality at 1.26 µg/cm2, 1.26 µg/cm2 [1, 6] | C. felis LC50 ([2]; Laboratory 1 C data) | C. felis LC50 ([2]; Laboratory 2 D data) | R. sanguineus LD50 [3] | R. sanguineus Mortality (%) 48 h [4] | mortality at 1.26 µg/cm2, 1.26 µg/cm2 [1, 7] | mortality at 1.26 µg/cm2, 1.26 µg/cm2 ([1]; 24 h, read-out: C. felis Mortality (%) 24 h, 24 h, Laboratory 1 A data)
C/C(=N\OCC(F)(F)F)c1cc(Cl)ccc1NS(=O)(=O)C(F)(F)F [Compound 186] | 100% | 100% | 0.1 μg/cm^2 | 0.006 μg/cm^2 | 0.9 μg/tick | 100% |  | 
C#CCO/N=C(\CC)c1cc(Cl)ccc1NS(=O)(=O)C(F)(F)F [Compound 208] | 100% | 100% |  | 0.02^D μg/cm^2 | 0.8 μg/tick | 100% |  | 
CC(C)ON=C(c1cc(Cl)ccc1NS(=O)(=O)C(F)(F)F)C1CCCCC1 (racemic) [Compound 210, N-[4-chloro-2-(cyclohexylisopropoxyiminomethyl)phenyl]trifluoromethanesulfonamide] | 66% | 100% |  | 0.1^D μg/cm^2 | 2.7 μg/tick | 100% |  | 
COCCO/N=C(\C)c1cc(Cl)ccc1NS(=O)(=O)C(F)(F)F [Compound 185, N-{4-chloro-2-[1-(2-methoxyethoxyimino)ethyl]phenyl}trifluoromethanesulfonamide] | 100% | 100% | 0.2 μg/cm^2 | 0.01 μg/cm^2 | 0.7 μg/tick | 100% |  | 
C/C(=N\OC(C)(C)C)c1cc(Cl)ccc1NS(=O)(=O)C(F)(F)F [Compound 223] | 92% | 100% |  | 0.04^D μg/cm^2 | 1.4 μg/tick | 97% |  | 
CC/C(=N\OCC1CC1)c1cc(Cl)ccc1NS(=O)(=O)C(F)(F)F [Compound 196, N-[4-chloro-2-(1-cyclopropylmethoxyiminopropyl)phenyl]trifluoromethanesulfonamide] | 96% | 100% |  | 0.008^D μg/cm^2 | 1.2 μg/tick | 100% |  | 
CCCCO/N=C(\C)c1cc(Cl)ccc1NS(=O)(=O)C(F)(F)F [Compound 244] |  | 100% |  | 0.07^D μg/cm^2 | 3.0 μg/tick |  | 100% | 
CCON=C(c1ccccc1)c1cc(Cl)ccc1NS(=O)(=O)C(F)(F)F (single isomer, unassigned) [Compound 177, N-[4-chloro-2-(ethoxyiminophenylmethyl)phenyl]trifluoromethanesulfonamide] |  |  | 0.3 μg/cm^2 |  | 17.6 μg/tick |  |  | 100%
CC/C(=N\OCCC(C)C)c1cc(Cl)ccc1NS(=O)(=O)C(F)(F)F [Compound 247] |  | 100% |  | 0.1^D μg/cm^2 | 4.6 μg/tick |  | 100% | 
C/C(=N\OCc1ccc(Cl)s1)c1cc(Cl)ccc1NS(=O)(=O)C(F)(F)F [Compound 194, N-{4-chloro-2-[1-(5-chlorothiophen-2-ylmethoxyimino)ethyl]phenyl}trifluoromethanesulfonamide] | 100% | 100% |  | 0.02^D μg/cm^2 | 2.0 μg/tick | 100% |  | 
